According to ChEMBL document CHEMBL5724562, “Toxicity screen in isolated B cell assay results for EUbOPEN Chemogenomics Library” (2024):
Positions of bridges follow the written chain, without caps; N, C: chain ends. Non-standard residues stand in square brackets, D forms with d. Residues, ends and D or L forms follow the SMILES beside them. *: point of attachment. dPhe(4-NHCONH2) = NC(=O)Nc1ccc(C[C@@H](N)C(=O)O)cc1; Dihydroorotyl(S) = O=C1C[C@@H](C(=O)*)NC(=O)N1; dPhe(4-Cl) = N[C@H](Cc1ccc(Cl)cc1)C(=O)O; Phe(4-NH2) = Nc1ccc(C[C@H](N)C(=O)O)cc1; d2Nal = N[C@H](Cc1ccc2ccccc2c1)C(=O)O; Lys(iPr) = CC(C)NCCCC[C@H](N)C(=O)O; d3Pal = N[C@H](Cc1cccnc1)C(=O)O; Orn = NCCC[C@H](N)C(=O)O; Mpa = O=C(O)CCS

Test system: B cell
Experiment: Cytotoxicity screening of chemical probes in isolated B cell assay. Data is normalized to DMSO control, the cell viability average of replicates are reported. Reduction of ATP level more than 20% indicate compromised cell health status.
Conditions: human

| Structure (SMILES) | Cell Viability (1 µM) [%] | further results |
| --- | --- | --- |
| Cl.O=C([C@@H](Cc1cccc(C(F)(F)F)c1)NS(=O)(=O)c1cc(F)c2c(c1)CCNC2)N1CCCC1 | 98.8503 | – |
| Cc1c(Nc2ccc(S(=O)(=O)N3CCN(C)CC3)cc2F)nc2ccc(-c3cnn(C4CC4)c3)cn2c1=O | 96.0793 | – |
| CC1(C)[C@H]2C[C@H](C/C=C\CCCC(=O)O)[C@@H](NC(=O)c3csc4ccc(O)cc34)[C@@H]1C2 | 100.906 | – |
| CNC(=O)c1cc(C(=O)NC2CC2)cn(Cc2ccccc2)c1=O [GSK620] | 102.307 | – |
| O=C1c2ccc(Nc3ccc(F)cc3F)cc2CCc2ccc(OC[C@H](O)CO)cc21 [Skepinone-L] | 96.8594 | – |
| Cc1nnc2c3ccccc3c(N[C@@H](C)[C@H](c3ccccc3)N(C)C)nn12 | 95.5642 | – |
| CCCc1cc(C)[nH]c(=O)c1CNC(=O)c1cc(-c2ccc(N3CCN(C(C)C)CC3)nc2)cc2c1cnn2C(C)C | 96.021 | – |
| CN1CCN(C(=O)C(C)(C)c2ccc(C(=O)Nc3cn4cc(-c5ccncc5)ccc4n3)cc2)CC1 [T3-CLK] | 73.6988 | – |
| CS(=O)(=O)c1cc(C2(NC(=O)c3cncc4c3cnn4-c3ccc(F)cc3)CC2)ccn1 [BI 639667] | – | Cell Viability (2 µM): 99.2983% |
| O=C(NCCCN1CCOC1=O)c1cnc(NCc2cc(Br)ccc2Br)nc1NC1CCCC1 | 100.266 | – |
| N#CC1(c2ccccn2)CCN(Cc2cc(C(=O)O)c(=O)n3ccccc23)CC1 [MSD-M1PAM] | 98.7103 | – |
| C[C@H](c1ccnc(Nc2nc3ccc(-c4cc(N(C)C)ncn4)cc3[nH]2)c1)N1CCN(C(=O)CC(F)(F)F)CC1 [BAY-985] | 78.1838 | – |
| COc1cc(OC)cc(-c2noc(N3CCN(C)C4(CCN(c5ccnc(C)c5)CC4)C3)n2)c1 | 97.1072 | – |
| CCOC(=O)c1cc2cc(-c3cc(C(=O)NCc4ccc(C(=O)O)cc4)nn3C)ccc2[nH]1 [BI 4394] | – | Cell Viability (0.1 µM): 99.7292% |
| O[C@]1(C(F)(F)F)CCCC[C@H]1Nc1ccc(F)cc1 [BAY-390] | – | Cell Viability (0.1 µM): 101.834% |
| Cc1cc(Cn2cnc3c2C[C@@H](C(=O)O)N(C(=O)C(c2ccccc2)c2ccccc2)C3)ccc1N(C)C | 100.94 | – |
| CCOC(=O)CCNc1cc(N2CCc3ccccc3CC2)nc(-c2ccccn2)n1 | 95.6308 | – |
| O=C(NC[C@H](O)CN1CCc2ccccc2C1)c1ccnc(NC2CCC2)c1 | 91.5741 | – |
| CC[C@H]1OC(=O)[C@H](C)[C@@H](O[C@H]2C[C@@](C)(OC)[C@@H](O)[C@H](C)O2)[C@H](C)[C@@H](O[C@@H]2O[C@H](C)C[C@H](N(C)C)[C@H]2O)[C@@]2(C)CC(C)=C(O2)[C@H](C)[C@@H](O)[C@]1(C)O | 98.1033 | – |
| O=C(Nc1cccnn1)N1CCC(=Cc2cccc(Oc3ccc(C(F)(F)F)cn3)c2)CC1 | 98.4854 | – |
| Cc1cc(Nc2nccc(C)n2)cc(-c2cnc([C@@]3(O)CC[C@H](C(=O)O)C(C)(C)C3)s2)c1 [MRL-SYKi] | – | Cell Viability (0.1 µM): 97.9587% |
| O=C(O)Cc1ccccc1Nc1c(Cl)cccc1Cl [DICLOFENAC] | 103.39 | – |
| CCCCN(CCCC)C(=O)CN1C[C@@H](c2cc(OC)c3c(c2)OCO3)[C@H](C(=O)O)[C@H]1CC(C)(C)CCC.Cl | 89.8179 | – |
| CN(C)C(=O)c1ccc(-c2cc(C(=O)N[C@@H]3CCc4ccccc43)no2)cc1O | 97.9607 | – |

| Structure (SMILES) | Cell Viability (1 µM) [%] | further results |
| --- | --- | --- |
| Cc1nc[nH]c1CCN.Cl | 99.4273 | – |
| COc1cc(-c2cn([C@H]3CCc4c(F)cccc4N(CC(F)(F)F)C3=O)nn2)ccc1-n1cnc(C)c1 | 98.1038 | – |
| COc1ccccc1C(=O)Nc1cc2c(cc1N1CCCC1)n(C)c(=O)n2C | 98.47 | – |
| CCc1nc2c(C)cc(C)nc2[nH]1 | 100.659 | – |
| CO[C@@H](C)c1c(Nc2ccc([C@H](N(C)C(=O)C3CCS(=O)(=O)CC3)C(F)(F)F)cc2)cnc2cc(Cl)nn12 [NVS-MALT1] | 90.4509 | – |
| Nc1ncnc2c1ccn2[C@@H]1O[C@H]([C@H](O)c2ccccc2)[C@@H](O)[C@H]1O | 101.429 | – |
| O=C(O)c1n[nH]c2c1C[C@H]1C[C@@H]21 | 98.0706 | – |
| Cl.Clc1ccc2nsnc2c1NC1=NCCN1 [TIZANIDINE HYDROCHLORIDE] | 103.384 | – |
| Cc1ccc(Cn2nc(C(=O)N[C@@H]3C(C)(C)[C@@H]4CC[C@@]3(C)C4)cc2-c2ccc(Cl)c(C)c2)cc1 | 95.8945 | – |
| CC(=O)N[C@H](Cc1ccc2ccccc2c1)C(=O)N[C@H](Cc1ccc(Cl)cc1)C(=O)N[C@H](Cc1cccnc1)C(=O)N[C@@H](CO)C(=O)N[C@@H](Cc1ccc(NC(=O)[C@@H]2CC(=O)NC(=O)N2)cc1)C(=O)N[C@H](Cc1ccc(NC(N)=O)cc1)C(=O)N[C@@H](CC(C)C)C(=O)N[C@@H](CCCCNC(C)C)C(=O)N1CCC[C@H]1C(=O)N[C@H](C)C(N)=O [DEGARELIX] (Ac-[d2Nal][dPhe(4-Cl)][d3Pal]S[Phe(4-NH2)](Dihydroorotyl(S))[dPhe(4-NHCONH2)]L[Lys(iPr)]P[dA]-NH2) | 102.434 | – |
| Cc1ccccc1Oc1cc(-n2c(=O)cc(C(F)(F)F)[nH]c2=O)c2ccccc2c1Cl [BAY-069] | 101.552 | – |
| O=C(NC[C@@H]1[C@H]2CN(C(=O)OCc3cc(C(F)(F)F)cc(C(F)(F)F)c3)C[C@@H]12)c1ccc2[nH]nnc2c1 [BI 2545] | 100.102 | – |
| COc1cc2c(cc1OCCCN1CCCC1)N=C(N)C21CCC1 | 98.8274 | – |
| CCNC(=O)c1cc2c(N3CCOCC3C)ccnc2[nH]1 (stereo unspecified) | 99.1799 | – |
| CC(C)C[C@@H]1NC(=O)[C@@H](C(C)C)NC(=O)[C@@H]2CCCN2C(=O)[C@@H](CC(=O)O)NC(=O)[C@@H](Cc2c[nH]c3ccccc23)NC1=O [BQ-123] (cyclo(L[dW][dD]P[dV])) | 98.787 | – |
| CN1CCN(c2cnc3c(C4CCN(C(=O)c5ccc(OC(F)(F)F)cc5N)CC4)ncnc3c2)CC1 [BAY-885] | 96.4414 | – |
| CN1C(=O)[C@@H](N2CCc3c(nn(Cc4ccccc4)c3Br)C2=O)COc2ccccc21 [TP-030-2] | – | Cell Viability (0.1 µM): 101.749% |
| Cc1c(N2CCCC2)nc2ccc(Br)cc2c1C(=O)NC[C@H](CCC(=O)O)c1ccccc1Cl [BAY-6672] | 98.0293 | – |
| CN(C)CCCOc1ccc(-c2cc(NCCCn3cccn3)nc(S(C)(=O)=O)n2)cc1 | 98.5143 | – |
| C[C@@H]1CN(Cc2ccc(F)cc2)CCN1C(=O)COc1ccc(Cl)cc1NC(N)=O [BX 471 FREE BASE] | 91.1693 | – |
| O=C(Nc1cnc(Oc2ccc(F)cc2)nc1)N1CCc2ncccc2[C@@H]1c1ccc(F)cc1 [BAY-899] | 98.9586 | – |
| Clc1cccc(-c2nnnn2Cc2cccnc2)c1Cl | 97.1983 | – |
| CCOC(=O)Nc1cc(-c2ccc(C)c(NS(C)(=O)=O)c2)nn2c(C)nnc12 | 84.5677 | – |
| NS(=O)(=O)c1cc(NC(=O)Cc2ccccc2)ccc1Oc1cccc(Cl)c1 [BAY-1797] | 95.6935 | – |

| Structure (SMILES) | Cell Viability (1 µM) [%] | further results |
| --- | --- | --- |
| COc1ccc2cc(OCC3(C(=O)O)CN(C(=O)c4ccc(F)cc4)C3)ccc2c1 [PF-04418948] | – | Cell Viability (0.1 µM): 98.5812% |
| CNC(=O)c1ccc(Nc2ncc(C(F)(F)F)c(NCc3nccnc3N(C)S(C)(=O)=O)n2)cc1 [DEFACTINIB] | – | Cell Viability (0.1 µM): 103.534% |
| Cc1cc(C)c(-n2ccn3nc(-c4cccnc4)cc23)cc1NC(=O)c1cc(C#N)cc(S(F)(F)(F)(F)F)c1 [BAY-826] | – | Cell Viability (0.1 µM): 99.8561% |
| CCN(CCO)CCCOc1ccc2c(Nc3cc(CC(=O)Nc4cccc(F)c4)[nH]n3)ncnc2c1 [DEFOSBARASERTIB] | 100.387 | – |
| CCCCN(CCCC)C(=O)CN1C[C@H](c2cc(OC)c3c(c2)OCO3)[C@@H](C(=O)O)[C@@H]1CC(C)(C)CCC.Cc1ccc(S(=O)(=O)O)cc1 | – | Cell Viability (0.1 µM): 100.019% |
| CCc1ccccc1C(=O)Nc1n[nH]c2c(C)c(F)c(C3C(C#N)=C(C)N(C)C(C)=C3C#N)cc12 [BAY-3827] | 97.1659 | – |
| O=C(NCc1ncc(C(F)(F)F)cc1Cl)c1ccc2c(c1)C1(CCS(=O)(=O)CC1)[C@H](C1CC1)N2S(=O)(=O)c1ccc(F)cc1 [BAY-784] | – | Cell Viability (0.1 µM): 98.8405% |
| O=C(/C=C/N1C[C@H]2C[C@@H]1CN2c1ccccn1)c1ccccc1O | 91.7355 | – |
| CCN(C(=O)CO)[C@H]1CN(/C(=N\C#N)Nc2cccc(OC(F)F)c2)N=C1c1ccc(Cl)c(Cl)c1 | 100.495 | – |
| C[C@@H](OC[C@@]1(c2ccccc2)CC[C@]2(CCC(=O)N2)CN1)c1cc(C(F)(F)F)cc(C(F)(F)F)c1 [ROLAPITANT] | 97.3629 | – |
| CN(C)[C@@H]1CCN(c2cc(-c3ccccc3)nc3ccnn23)C1 [(R)-ZINC-3573] | 100.756 | – |
| c1cc(OCCCN2CCCCC2)ccc1CN1CCCCC1 [JNJ-5207852] | 101.482 | – |
| CN([C@@H]1CCc2c(CC(=O)O)c3ccccc3n2C1)S(=O)(=O)c1ccc(F)cc1 [MK-7246] | 96.8838 | – |
| CC1(C)C(N)=Nc2cc(OCCCN3Cc4ccc(OCCc5cn(CC(=O)N6CCC(CCN7CCCC7)CC6)nn5)cc4C3)c(OCC3CC3)cc21 | 92.0303 | – |
| Cl.Cl.c1ccc([C@@H]2C[C@H]2NC2CCNCC2)cc1 | 93.3816 | – |
| CN1CCN(c2ccc(-c3cccc(CN4CCOCC4)c3)cc2NC(=O)c2c[nH]c(=O)cc2C(F)(F)F)CC1 | 99.6552 | – |
| Cc1[nH]cnc1CN1CCc2c(c3ccccc3n2C)C1=O [ALOSETRON] | 98.6661 | – |
| CCOc1ccc(C[C@H]2NC(=O)CCSSC[C@@H](C(=O)N3CCC[C@H]3C(=O)N[C@@H](CCCN)C(=O)NCC(N)=O)NC(=O)[C@H](CC(N)=O)NC(=O)[C@H]([C@@H](C)O)NC(=O)[C@H]([C@@H](C)CC)NC2=O)cc1 [ATOSIBAN] ([Mpa][dY](Et)ITNCP[Orn]G-NH2; disulfide 1-6) | 101.789 | – |
| COCCn1c(C)c(C)s/c1=N\C(=O)C1C(C)(C)C1(C)C | 97.5131 | – |
| CCNC1(C(N)=O)CCN(c2ncnc3c2nc(-c2ccccc2Cl)n3-c2ccc(Cl)cc2)CC1 [OTENABANT] | 101.882 | – |
| CN1C[C@H](Nc2cnn(C)c(=O)c2Br)C[C@H](c2ccccc2)C1 | 94.5817 | – |
| Cc1c(C(=O)NN2CCCCC2)nn(-c2ccc(Cl)cc2Cl)c1-c1ccc(Cl)cc1 [RIMONABANT] | 99.45 | – |
| CCCS(=O)(=O)c1nc(NC2CC2)cc(-c2ccc3c(ccn3C3CC(C)(C)NC(C)(C)C3)c2)n1 | 24.107 | – |
